Data set [1] can be described thus: Inhibition of cell adhesion of human KM12-HX cells to TNF-alpha stimulated HUVEC cells incubated for 30 mins with HUVEC cells followed by [3H]thymidine labeled KM12-HX cells addition measured after 30 mins by radioactivity assay. Format: functional, cell-based.
A further data set relates to U-251. Description: Growth inhibition of human U-251 cells by sulforhodamine B assay. The data set is classed as functional. On the technique in general: The SRB assay estimates cell density from bound dye.
In a further data set the test system is RXF 631. Put plainly: Growth inhibition of human RXF 631 cells by sulforhodamine B assay. The data set is classed as functional.
For the next data set, the system named is KM12. Description: Growth inhibition of human KM12 cells by sulforhodamine B assay. Format: functional.
Data set [2] relates to MCF7. Description: Growth inhibition of human MCF7 cells by sulforhodamine B assay. The data set is classed as functional.
The next data set relates to HCT-116. Description: Growth inhibition of human HCT-116 cells by sulforhodamine B assay. The data set is classed as functional.
Data set [3] addresses Sarcoplasmic/endoplasmic reticulum calcium ATPase 1 (Oryctolagus cuniculus, UniProt P04191). Description: Inhibition of SERCA1a in rabbit Sarcoplasmic reticulum assessed as inhibition constant in presence of [gamma-32P]ATP and calcium ionophore A23187 by coupled enzyme assay. The data set is classed as subcellular.
For a further data set, the system named is HeLa S3. Put plainly: Cytotoxicity against human HeLa S3 cells assessed as cell growth inhibition. Format: functional, cell-based.
For a further data set, the system named is NCI-H23. Put plainly: Growth inhibition of human NCI-H23 cells by sulforhodamine B assay. The data set is classed as functional.
Data set [4] can be described thus: Growth inhibition of human HBC5 cells by sulforhodamine B assay. The data set is classed as functional.
For a further data set, the system named is HCC 2998. Description: Growth inhibition of human HCC 2998 cells by sulforhodamine B assay. The data set is classed as functional.
The next data set concerns PC-3. Description: Growth inhibition of human PC-3 cells by sulforhodamine B assay. The data set is classed as functional.
The next data set deals with OVCAR-4. Description: Growth inhibition of human OVCAR-4 cells by sulforhodamine B assay. Format: functional.
The test system of another data set is HT-29. Put plainly: Growth inhibition of human HT-29 cells by sulforhodamine B assay. The data set is classed as functional.
The subject of a further data set is MKN-74. Put plainly: Growth inhibition of human MKN-74 cells by sulforhodamine B assay. The data set is classed as functional.
For another data set, the system named is SK-OV-3. Put plainly: Growth inhibition of human SK-OV-3 cells by sulforhodamine B assay. Format: functional.
The test system of a further data set is NCI-H226. Description: Growth inhibition of human NCI-H226 cells by sulforhodamine B assay. Format: functional.
The next data set relates to DU-145. Description: Growth inhibition of human DU-145 cells by sulforhodamine B assay. The data set is classed as functional.
For another data set, the system named is HCT-15. Description: Growth inhibition of human HCT-15 cells by sulforhodamine B assay. The data set is classed as functional.
The subject of the next data set is DMS-273. Description: Growth inhibition of human DMS-273 cells by sulforhodamine B assay. The data set is classed as functional.
In the next data set the test system is A549. Description: Growth inhibition of human A549 cells by sulforhodamine B assay. The data set is classed as functional.
The next data set relates to SF-268. Put plainly: Growth inhibition of human SF-268 cells by sulforhodamine B assay. The data set is classed as functional.
A further data set has as its system OVCAR-5. Put plainly: Growth inhibition of human OVCAR-5 cells by sulforhodamine B assay. The data set is classed as functional.
Another data set concerns NCI-H522. Description: Growth inhibition of human NCI-H522 cells by sulforhodamine B assay. The data set is classed as functional.
Another data set has as its system ACHN. Put plainly: Growth inhibition of human ACHN cells by sulforhodamine B assay. Format: functional.
In a further data set the test system is OVCAR-3. Description: Growth inhibition of human OVCAR-3 cells by sulforhodamine B assay. Format: functional.
Data set [5] can be described thus: Growth inhibition of human HBC4 cells by sulforhodamine B assay. The data set is classed as functional.
The test system of a further data set is MKN-28. Put plainly: Growth inhibition of human MKN-28 cells by sulforhodamine B assay. The data set is classed as functional.
For the next data set, the system named is OVCAR-8. Description: Growth inhibition of human OVCAR-8 cells by sulforhodamine B assay. Format: functional.
Data set [6] can be described thus: Growth inhibition of human […] cells by sulforhodamine B assay. The data set is classed as functional.
A further data set concerns MKN-45. Put plainly: Growth inhibition of human MKN-45 cells by sulforhodamine B assay. Format: functional.
In a further data set the test system is SF-539. Description: Growth inhibition of human SF-539 cells by sulforhodamine B assay. The data set is classed as functional.
A further data set deals with MKN-7. Description: Growth inhibition of human MKN-7 cells by sulforhodamine B assay. The data set is classed as functional.
The subject of the next data set is SNB-75. Description: Growth inhibition of human SNB-75 cells by sulforhodamine B assay. Format: functional.
In another data set the test system is St-4. Description: Growth inhibition of human St-4 cells by sulforhodamine B assay. The data set is classed as functional.
The subject of another data set is MKN-1. Description: Growth inhibition of human MKN-1 cells by sulforhodamine B assay. Format: functional.
The test system of a further data set is LOX IMVI. Put plainly: Growth inhibition of human LOX IMVI cells by sulforhodamine B assay. Format: functional.
The subject of the next data set is NCI-H460. Put plainly: Growth inhibition of human NCI-H460 cells by sulforhodamine B assay. Format: functional.
The next data set deals with SF-295. Put plainly: Growth inhibition of human SF-295 cells by sulforhodamine B assay. The data set is classed as functional.
The nature of data set [7]: Growth inhibition of human BSY1 cells by sulforhodamine B assay. Format: functional. Particulars: BSY-1.
For the next data set, the system named is SNB-78. Description: Growth inhibition of human SNB-78 cells by sulforhodamine B assay. The data set is classed as functional.
Data set [8] in a line: Induction of apoptosis in rat Glial cell transformed with adenovirus 12 E1A incubated for 24 hrs by /Hoechst […] staining based flourescence microscopy. The data set is classed as functional.
Another data set relates to NCI-H292. Put plainly: Cytotoxicity against human NCI-H292 cells assessed as reduction in cell viability incubated for 4 days by WST-1 assay. To be noted: NCI-H292, 96 h. Format: functional, cell-based. (In general: Tetrazolium dyes change colour on reduction, which living cells bring about.)
The next data set has as its system MG-63. Description: Cytotoxicity against human MG-63 cells assessed as inhibition of cell growth incubated for 30 mins by MTT colorimetric assay. Particulars: MG-63, 0.5 h. Format: functional, cell-based.
A further data set has as its system SMMC-7721. Description: Cytotoxicity against human SMMC-7721 cells assessed as inhibition of cell growth incubated for 30 mins by MTT colorimetric assay. Format: functional, cell-based. To be noted: SMMC-7721, 0.5 h.
Data set [9] deals with MCF7. Put plainly: Cytotoxicity against human MCF7 cells assessed as inhibition of cell growth incubated for 30 mins by MTT colorimetric assay. Format: functional, cell-based. To be noted: MCF7, 0.5 h.
The nature of data set [10]: Cytotoxicity against mouse NIH/3T3 cells assessed as cell growth inhibition incubated for 3 days by MTT assay. The data set is classed as toxicity, cell-based, NIH3T3.
The test system of another data set is MCF-10A. Put plainly: Cytotoxicity against human MCF-10A cells assessed as cell growth inhibition incubated for 3 days by MTT assay. Format: functional, cell-based. Particulars: 72 h.

Results on five molecules are retold here after ChEMBL document CHEMBL5260828, “Amphiphilic glycoconjugates as potential anti-cancer chemotherapeutics” (Eur J Med Chem, 2018).

In brackets after ≈: the same amount, converted by molar mass. Bounds are passed on as bounds.

Sequence of Sarcoplasmic/endoplasmic reticulum calcium ATPase 1 (P04191 whole entry): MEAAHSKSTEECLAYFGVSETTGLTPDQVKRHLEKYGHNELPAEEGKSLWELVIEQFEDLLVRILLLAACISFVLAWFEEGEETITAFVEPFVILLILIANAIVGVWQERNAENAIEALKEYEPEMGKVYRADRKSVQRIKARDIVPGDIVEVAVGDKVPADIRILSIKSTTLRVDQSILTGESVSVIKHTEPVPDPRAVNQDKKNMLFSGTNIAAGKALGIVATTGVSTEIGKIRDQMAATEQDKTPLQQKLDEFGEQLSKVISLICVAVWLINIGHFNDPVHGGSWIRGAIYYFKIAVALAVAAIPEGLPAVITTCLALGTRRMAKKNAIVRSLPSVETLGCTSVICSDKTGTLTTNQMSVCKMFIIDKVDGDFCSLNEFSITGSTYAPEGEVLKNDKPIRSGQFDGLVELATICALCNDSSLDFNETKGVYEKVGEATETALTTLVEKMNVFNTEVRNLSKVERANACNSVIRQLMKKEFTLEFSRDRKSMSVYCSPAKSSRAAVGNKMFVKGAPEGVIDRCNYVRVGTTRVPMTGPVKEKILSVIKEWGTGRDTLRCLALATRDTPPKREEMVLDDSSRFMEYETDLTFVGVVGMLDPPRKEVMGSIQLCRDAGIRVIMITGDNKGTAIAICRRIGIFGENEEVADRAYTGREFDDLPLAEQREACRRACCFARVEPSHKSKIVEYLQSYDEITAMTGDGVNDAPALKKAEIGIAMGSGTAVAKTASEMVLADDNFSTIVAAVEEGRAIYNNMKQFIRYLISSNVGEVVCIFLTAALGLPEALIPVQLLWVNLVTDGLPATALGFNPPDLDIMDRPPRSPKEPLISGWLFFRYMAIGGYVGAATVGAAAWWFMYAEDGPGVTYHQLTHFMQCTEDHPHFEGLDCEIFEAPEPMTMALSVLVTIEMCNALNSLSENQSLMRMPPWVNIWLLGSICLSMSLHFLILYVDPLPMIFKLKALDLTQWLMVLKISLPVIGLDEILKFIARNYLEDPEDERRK

Consider `CCCCCCCCCCCCCCC(CCCCCCCCCCCCCC)CO[C@@H]1O[C@H](CO)[C@@H](O[C@@H]2O[C@H](CO)[C@H](O)[C@H](OS(=O)(=O)O)[C@H]2O)[C@H](O[C@@H]2O[C@@H](C)[C@@H](O)[C@@H](O)[C@@H]2O)[C@H]1O`, for which, in data set [1], the IC50 (usually the concentration needed to halve the response being measured) was 300000 nM.
On to `C/C=C/C/C(C)=C\[C@H]1C/C=C/C=C/C[C@H](C)/C=C(\C)[C@@H](OC)C/C=C/[C@@H](O[C@@H]2O[C@H](CO)[C@@H](O)[C@H](OC)[C@H]2O)CC(=O)O1`, for which the GI50 with U-251, in the data set with RXF 631, in the data set with KM12, with MCF7 [2], in the data set with HCT-116 and in the data set with NCI-H23 was 600 nM each time. Further, the GI50 (in data set [4]; in the data set with HCC 2998; in the data set with PC-3; with OVCAR-4; in the data set on HT-29; in the data set with MKN-74) was 600 nM each time. In addition, the GI50 in the data set on SK-OV-3, in the data set on NCI-H226, in the data set with DU-145, in the data set on HCT-15, in the data set with DMS-273 and in the data set with A549 was 600 nM each time. Moreover, the GI50 (in the data set with SF-268; in the data set with OVCAR-5; with NCI-H522; in the data set with ACHN; in the data set with OVCAR-3; in data set [5]) was 600 nM in each case. Moreover, the GI50 (with MKN-28; in the data set on OVCAR-8; in data set [6]; in the data set with MKN-45; with SF-539; in the data set with MKN-7) was 600 nM in each case. The GI50 in the data set with SNB-75, in the data set with St-4, with MKN-1, in the data set on LOX IMVI, in the data set on NCI-H460 and in the data set with SF-295 was 600 nM in each case. In addition, the GI50 (in data set [7]; in the data set with SNB-78) was 600 nM throughout. In data set [3], the inhibition constant Ki (usually the equilibrium dissociation constant of an inhibitor or competing ligand from its target) was determined as 19 nM. The IC50 in the data set on HeLa S3 is 0.1 µg/mL (≈ 0.165 µM).
The molecule `COC[C@@H](C[C@H]1O[C@@](O)([C@H](O)[C@@H]2C[C@H](OC)[C@@H](O)CC/C=C(C)/C=C/[C@@H](O[C@@H]3O[C@@H](C)[C@H](OC)[C@@H](O)[C@@H]3O)[C@H](C)/C=C(C)/C=C(C)/C=C(\C)C(=O)O2)[C@H](C)[C@@H](O)[C@H]1C)O[C@H]1C[C@](C)(O)[C@@H](O[C@H]2C[C@@H](OC)[C@H](O)[C@@H](C)O2)[C@H](C)O1` displayed an IC50 in data set [8] of 0.011 µg/mL (≈ 0.00974 µM). Moreover, the EC50 – broadly, the concentration needed to bring the measured effect to its halfway point – in the data set with NCI-H292 was < 50 nM.
For `CCCCC[C@@H](CCCCCCCCCC(=O)O[C@H]1[C@H](O[C@@H](CNc2ccc(OC)cc2)[C@@H](O)[C@H](O)[C@H](O)CO)O[C@@H](C)[C@H](OC(=O)[C@@H](C)[C@@H](C)O)[C@H]1O[C@@H]1O[C@@H](C)[C@H](O)[C@@H](O)[C@H]1O)O[C@@H]1OC[C@@H](O)[C@H](O)[C@H]1O[C@@H]1O[C@H](CO)[C@@H](O)[C@H](O)[C@H]1O[C@@H]1O[C@@H](C)[C@H](OC(=O)[C@H](C)[C@@H](C)O)[C@@H](O[C@@H]2O[C@@H](C)[C@H](O)[C@@H](O)[C@H]2O)[C@H]1OC(=O)CCCCCCCCC[C@@H](O)CCC`, the IC50 in the data set with MG-63 was 10.9 µg/mL (≈ 5.9 µM); in the data set with SMMC-7721 it was 9.78 µg/mL (≈ 5.29 µM); with MCF7 [9], 8.72 µg/mL (≈ 4.72 µM).
In the case of `C/C=C(\C)C(=O)O[C@@H]1[C@@H](O)[C@@H]2O[C@H]3[C@H](O[C@@H](CCCCC)CCCCCCC(=O)CCC(=O)OC[C@@H](O2)[C@H]1OC(=O)/C=C/c1ccccc1)O[C@H](C)[C@H](OC(C)=O)[C@@H]3O`, in data set [10], the IC50 at 3 days came to 16.8 nM. Also, the IC50 with MCF-10A turned out to be 5.4 nM.
